We go through 38 molecules from US20250059220A1, “SUBSTITUTED BENZOTHIOPHENE DERIVATIVES AND METHODS OF USE THEREOF” (Merck Sharp & Dohme LLC, priority 2021, published 2025).

Some results are limits rather than exact numbers.

One test addresses human PTPN1 (1-435) (Homo sapiens (Human), UniProt P18031). Kind of test: Human PTPN1 Biochemical Assay. Conditions: DiFMUP substrate, read-out: PTP1B IC50. In outline:
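Read-out is DiFMUP hydrolysis fluorescence (360 nm excitation, 460 nm emission) after 1 h at room temperature, following 30 min enzyme–compound preincubation.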

The target of another test is human PTPN2 (1-387) (Homo sapiens (Human), UniProt P17706). Kind of test: Human PTPN2 Biochemical Assay. The note with it: DiFMUP substrate. Put shortly: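 Human PTPN2 (1-387) preincubated 30 min at RT with compound (10-point 3-fold series) in Tris pH 7.4 buffer with 0.5 mM DTT, then DiFMUP substrate added for 1 h at RT. Fluorescence at ex 360/em 460 nm, normalised to no-enzyme and enzyme controls; EC50 from 4-parameter fit.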
Chain of human PTPN2 (1-387) (P17706 other isoform, or with tags, fused parts or gaps): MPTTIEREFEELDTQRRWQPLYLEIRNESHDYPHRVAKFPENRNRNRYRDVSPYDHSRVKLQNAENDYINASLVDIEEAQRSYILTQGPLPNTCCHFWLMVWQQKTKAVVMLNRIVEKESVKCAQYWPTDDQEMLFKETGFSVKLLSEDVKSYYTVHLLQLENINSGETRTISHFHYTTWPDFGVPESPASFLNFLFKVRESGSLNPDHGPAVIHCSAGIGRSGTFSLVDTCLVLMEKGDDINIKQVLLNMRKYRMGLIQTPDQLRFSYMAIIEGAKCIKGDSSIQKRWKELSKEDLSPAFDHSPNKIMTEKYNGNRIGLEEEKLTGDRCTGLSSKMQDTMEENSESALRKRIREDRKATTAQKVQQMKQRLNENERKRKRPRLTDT

Chain of human PTPN1 (1-435) (P18031 whole entry): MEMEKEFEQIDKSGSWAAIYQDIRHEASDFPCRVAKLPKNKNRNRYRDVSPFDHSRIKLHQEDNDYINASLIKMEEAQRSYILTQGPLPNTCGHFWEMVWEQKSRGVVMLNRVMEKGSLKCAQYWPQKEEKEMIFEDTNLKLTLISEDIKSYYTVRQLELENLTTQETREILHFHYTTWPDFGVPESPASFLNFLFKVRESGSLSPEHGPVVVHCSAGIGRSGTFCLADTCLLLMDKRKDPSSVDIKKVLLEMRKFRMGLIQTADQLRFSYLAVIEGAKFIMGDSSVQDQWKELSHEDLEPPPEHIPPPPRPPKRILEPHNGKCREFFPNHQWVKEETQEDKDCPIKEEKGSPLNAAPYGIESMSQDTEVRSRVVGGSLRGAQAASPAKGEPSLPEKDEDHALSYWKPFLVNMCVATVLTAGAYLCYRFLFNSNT

What is called IC50 is the point on the concentration scale where inhibition reaches its midpoint. Turning to `O=P(O)(O)C(F)(F)c1sc2c(OCCCC(F)(F)F)cc(-c3c[nH]cn3)cc2c1Br` [Compound 416, ((3-bromo-5-(1H-imidazol-4-yl)-7-(4,4,4-trifluorobutoxy)benzo[b]thiophen-2-yl)difluoromethyl)phosphonic acid], the values for the IC50 at human PTPN1 (1-435) and against human PTPN2 (1-387) were 137 nM and 92 nM, respectively.
Take `O=P(O)(O)C(F)(F)c1sc2c(OCCCC(F)(F)F)cc(-c3nnc(C4CC4)[nH]3)cc2c1Br` [Compound 418]: the IC50 was found to be 2.5 nM on human PTPN1 (1-435) and 2.7 nM at human PTPN2 (1-387).
With `O=P(O)(O)C(F)(F)c1sc2c(OCCCC(F)(F)F)cc(-c3nnc(C(F)(F)F)[nH]3)cc2c1Br` [Compound 420, ((3-bromo-7-(4,4,4-trifluorobutoxy)-5-(5-(trifluoromethyl)-4H-1,2,4-triazol-3-yl)benzo[b]thiophen-2-yl)difluoromethyl)phosphonic acid], the IC50 at human PTPN1 (1-435) was determined as 2.7 nM; against human PTPN2 (1-387) it was 2.85 nM.
As for `CS(=O)(=O)CCCOc1cc(C(N)=O)cc2c(C#N)c(C(F)(F)P(=O)(O)O)sc12` [Compound 421, ((5-carbamoyl-3-cyano-7-(3-(methylsulfonyl)propoxy)benzo[b]thiophen-2-yl)difluoromethyl)phosphonic acid], the IC50 at human PTPN1 (1-435) is 11.9 nM; on human PTPN2 (1-387) it was 4.87 nM.
Regarding `CNC(=O)c1cc(OCCCS(C)(=O)=O)c2sc(C(F)(F)P(=O)(O)O)c(C#N)c2c1` [Compound 422], the IC50 on human PTPN1 (1-435) was determined as 11.7 nM; at human PTPN2 (1-387), 7.84 nM.
As to `N#Cc1c(C(F)(F)P(=O)(O)O)sc2c(OCCCS(N)(=O)=O)cc(C(N)=O)cc12` [Compound 423], the figures for the IC50 at human PTPN1 (1-435) and on human PTPN2 (1-387) were 11.5 nM and 9.7 nM, respectively.
Regarding `N#Cc1c(C(F)(F)P(=O)(O)O)sc2c(OCCCC(F)(F)F)cc(C(N)=O)cc12` [Compound 424], the 50% inhibitory concentration (IC50) stood at 19.7 nM on human PTPN1 (1-435) and 6.69 nM at human PTPN2 (1-387).
As for `N#Cc1c(C(F)(F)P(=O)(O)O)sc2c(OCC3CC3(F)F)cc(C(N)=O)cc12` (stereo not shown) [Compound 425], the IC50 at human PTPN1 (1-435) amounted to 30.8 nM; against human PTPN2 (1-387), 22.8 nM.
The corresponding values for `N#Cc1c(C(F)(F)P(=O)(O)O)sc2c(OCC3CC3(F)F)cc(C(N)=O)cc12` (stereo not shown) [Compound 426] are 13.7 nM and 10.2 nM.
On to `CNC(=O)c1cc(OCCCS(N)(=O)=O)c2sc(C(F)(F)P(=O)(O)O)c(C#N)c2c1` [Compound 427], for which the IC50 on human PTPN1 (1-435) came to 5.4 nM; on human PTPN2 (1-387) it was 3.63 nM.
In the case of `CS(=O)(=O)CCCOc1cc(-c2nc[nH]n2)cc2c(C#N)c(C(F)(F)P(=O)(O)O)sc12` [Compound 428], the IC50 at human PTPN1 (1-435) and on human PTPN2 (1-387) was 2.5 nM in each case.
As to `Cc1c(C(F)(F)P(=O)(O)O)sc2c(OCCCS(C)(=O)=O)cc(C(N)=O)cc12` [Compound 429, ((5-carbamoyl-3-methyl-7-(3-(methylsulfonyl)propoxy)benzo[b]thiophen-2-yl)difluoromethyl)phosphonic acid], the IC50 on human PTPN1 (1-435) is 82.1 nM; against human PTPN2 (1-387), 87.2 nM.
As to `CNC(=O)c1cc(OCCCS(C)(=O)=O)c2sc(C(F)(F)P(=O)(O)O)c(C)c2c1` [Compound 430], the IC50 was 61.7 nM on human PTPN1 (1-435) and 109 nM on human PTPN2 (1-387).
Regarding `Cc1c(C(F)(F)P(=O)(O)O)sc2c(OCCCC(F)(F)F)cc(C(N)=O)cc12` [Compound 431], the IC50 on human PTPN1 (1-435) amounted to 99.3 nM; against human PTPN2 (1-387), 119 nM.
On to `Cc1c(C(F)(F)P(=O)(O)O)sc2c(OCCCS(N)(=O)=O)cc(C(N)=O)cc12` [Compound 432], for which the IC50 at human PTPN1 (1-435) came to 117 nM; against human PTPN2 (1-387) it was 114 nM.
With `CNC(=O)c1cc(OCCCS(N)(=O)=O)c2sc(C(F)(F)P(=O)(O)O)c(C)c2c1` [Compound 433], the IC50 on human PTPN1 (1-435) stood at 29.3 nM; against human PTPN2 (1-387), 33 nM.
For `Cc1c(C(F)(F)P(=O)(O)O)sc2c(OCC3CC3(F)F)cc(C(N)=O)cc12` (stereo not shown) [Compound 434], the values for the IC50 at human PTPN1 (1-435) and at human PTPN2 (1-387) were 482 nM and 438 nM, respectively.
On the same counts, the results for `Cc1c(C(F)(F)P(=O)(O)O)sc2c(OCC3CC3(F)F)cc(C(N)=O)cc12` (stereo not shown) [Compound 435] are 207 nM and 130 nM.
As to `Cc1c(C(F)(F)P(=O)(O)O)sc2c(OCCCS(C)(=O)=O)cc(-c3nc[nH]n3)cc12` [Compound 436], the IC50 turned out to be 6.7 nM on human PTPN1 (1-435) and 6.6 nM at human PTPN2 (1-387).
On the same counts, the results for `Cc1c(C(F)(F)P(=O)(O)O)sc2c(OCCCC(C)(C)O)cc(C(N)=O)cc12` [Compound 437] are 153 nM and 109 nM.
As to `Cc1c(C(F)(F)P(=O)(O)O)sc2c(OCc3ccc(S(C)(=O)=O)cc3)cc(C(N)=O)cc12` [Compound 438], the values for the IC50 at human PTPN1 (1-435) and against human PTPN2 (1-387) were 27.4 nM and 21.5 nM, respectively.
As to `CS(=O)(=O)CCCOc1cc(-c2nc[nH]n2)cc2c(Br)c(C(F)(F)P(=O)(O)O)sc12` [Compound 439, ((3-bromo-7-(3-(methylsulfonyl)propoxy)-5-(1H-1,2,4-triazol-3-yl)benzo[b]thiophen-2-yl)difluoromethyl)phosphonic acid], the IC50 on human PTPN1 (1-435) and against human PTPN2 (1-387) was 2.5 nM in each case.
As for `NS(=O)(=O)CCCOc1cc(-c2nc[nH]n2)cc2c(Br)c(C(F)(F)P(=O)(O)O)sc12` [Compound 440], the IC50 at human PTPN1 (1-435) and against human PTPN2 (1-387) was 2.5 nM each time.
On to `O=P(O)(O)C(F)(F)c1sc2c(OCC3CC3(F)F)cc(-c3nc[nH]n3)cc2c1Br` (stereo not shown) [Compound 441], for which the IC50 at human PTPN1 (1-435) and against human PTPN2 (1-387) was 2.5 nM each time.
On to `O=P(O)(O)C(F)(F)c1sc2c(OCC3CC3(F)F)cc(-c3nc[nH]n3)cc2c1Br` (stereo not shown) [Compound 442], for which the figures for the IC50 at human PTPN1 (1-435) and on human PTPN2 (1-387) were 5 nM and 5.56 nM, respectively.
`Cc1c(C(F)(F)P(=O)(O)O)sc2c(OCCCS(N)(=O)=O)cc(-c3nc[nH]n3)cc12` [Compound 443]: the figures for the IC50 at human PTPN1 (1-435) and against human PTPN2 (1-387) were 5.1 nM and 6.17 nM, respectively.
Take `CS(=O)(=O)c1ccc(COc2cc(-c3nc[nH]n3)cc3c(Br)c(C(F)(F)P(=O)(O)O)sc23)cc1` [Compound 444]: the IC50 at human PTPN1 (1-435) and at human PTPN2 (1-387) was below 2.5 nM throughout.
As to `CS(=O)(=O)CCCOc1cc(C(N)=O)cc2c(C(F)(F)F)c(C(F)(F)P(=O)(O)O)sc12` [Compound 445, ((5-carbamoyl-7-(3-(methylsulfonyl)propoxy)-3-(trifluoromethyl)benzo[b]thiophen-2-yl)difluoromethyl)phosphonic acid], the IC50 at human PTPN1 (1-435) is 12.7 nM; against human PTPN2 (1-387) it was 15.5 nM.
On the same counts, the results for `NC(=O)c1cc(OCCCS(N)(=O)=O)c2sc(C(F)(F)P(=O)(O)O)c(C(F)(F)F)c2c1` [Compound 446] are 18.2 nM and 14.7 nM.
Regarding `CCCC(CO)Oc1cc(C(N)=O)cc2c(Br)c(C(F)(F)P(=O)(O)O)sc12` (stereo not shown) [Compound 447, ((3-bromo-5-carbamoyl-7-((1-hydroxypentan-2-yl)oxy)benzo[b]thiophen-2-yl)difluoromethyl)phosphonic acid], the results for the IC50 on human PTPN1 (1-435) and at human PTPN2 (1-387) were 231 nM and 500 nM, respectively.
Regarding `N#CCc1cc(OCCCC(F)(F)F)c2sc(C(F)(F)P(=O)(O)O)c(Br)c2c1` [Compound 448, ((3-bromo-5-(cyanomethyl)-7-(4,4,4-trifluorobutoxy)benzo[b]thiophen-2-yl)difluoromethyl)phosphonic acid], the IC50 at human PTPN1 (1-435) stood at 230 nM; against human PTPN2 (1-387), 316 nM.
Turning to `CC(=O)NCc1cc(OCCCC(F)(F)F)c2sc(C(F)(F)P(=O)(O)O)c(Br)c2c1` [Compound 449, ((5-(acetamidomethyl)-3-bromo-7-(4,4,4-trifluorobutoxy)benzo[b]thiophen-2-yl)difluoromethyl)phosphonic acid], the values for the IC50 on human PTPN1 (1-435) and on human PTPN2 (1-387) were 812 nM and 1190 nM, respectively.
With `CS(=O)(=O)NCc1cc(OCCCC(F)(F)F)c2sc(C(F)(F)P(=O)(O)O)c(Br)c2c1` [Compound 450, ((3-bromo-5-(methylsulfonamidomethyl)-7-(4,4,4-trifluorobutoxy)benzo[b]thiophen-2-yl)difluoromethyl)phosphonic acid], the IC50 on human PTPN1 (1-435) stood at 175 nM; at human PTPN2 (1-387), 227 nM.
Turning to `Cc1c(C(F)(F)P(=O)(O)O)sc2c(OCCCS(C)(=O)=O)cc(-c3c[nH]nn3)cc12` [Compound 451, (difluoro(3-methyl-7-(3-(methylsulfonyl)propoxy)-5-(1H-1,2,3-triazol-4-yl)benzo[b]thiophen-2-yl)methyl)phosphonic acid], the IC50 turned out to be 16.5 nM at human PTPN1 (1-435) and 14.6 nM against human PTPN2 (1-387).
On the same counts, the results for `Cc1ncc(-c2cc(OCCCC(F)(F)F)c3sc(C(F)(F)P(=O)(O)O)c(Br)c3c2)[nH]1` [Compound 452, ((3-bromo-5-(2-methyl-1H-imidazol-5-yl)-7-(4,4,4-trifluorobutoxy)benzo[b]thiophen-2-yl)difluoromethyl)phosphonic acid] are 71.9 nM and 63.9 nM.
On the same counts, the results for `CS(=O)(=O)CCCOc1cc(C(N)=O)cc2cc(C(F)(F)P(=O)(O)O)sc12` [Compound 453, ammonium ((5-carbamoyl-7-(3-(methylsulfonyl)propoxy)benzo[b]thiophen-2-yl)difluoromethyl)phosphonate] are 7860 nM and 9580 nM.
As for `CS(=O)(=O)CCCOc1cc(C(N)=O)cc2c(C(F)F)c(C(F)(F)P(=O)(O)O)sc12` [Compound 454, ((5-carbamoyl-3-(difluoromethyl)-7-(3-(methylsulfonyl)propoxy)benzo[b]thiophen-2-yl)difluoromethyl)phosphonic acid], the IC50 turned out to be 40.3 nM on human PTPN1 (1-435) and 24.5 nM on human PTPN2 (1-387).
For the molecule `N#Cc1c(C(F)(F)P(=O)(O)O)sc2c(OCCCS(N)(=O)=O)cc(-c3c[nH]nn3)cc12` [Compound 455, ((3-cyano-7-(3-sulfamoylpropoxy)-5-(1H-1,2,3-triazol-4-yl)benzo[b]thiophen-2-yl)difluoromethyl)phosphonic acid], the IC50 worked out at 3.6 nM at human PTPN1 (1-435) and 2.69 nM against human PTPN2 (1-387).
